Laboratory results published in ChEMBL document CHEMBL6114946, “Development and characterization of pyridyl carboxamides as potent and highly selective Nav1.8 inhibitors” (Bioorg Med Chem Lett, 2025).
Values after ≈ are worked out from the molar mass of the structure shown. Active and inactive are the calls of the source. The rule behind the calls is not given here.

Key:
[1] = molecular target: T1, Sodium channel protein type 10 subunit alpha (Homo sapiens, UniProt Q9Y5Y9); experiment: Inhibition of Nav1.8 (unknown origin) over expressed in HEK cells assessed as reduction in deltamethrin-stimulated channel activation by FLIPR assay; assay type: cell-based
Target sequence in this assay (Q9Y5Y9 whole entry): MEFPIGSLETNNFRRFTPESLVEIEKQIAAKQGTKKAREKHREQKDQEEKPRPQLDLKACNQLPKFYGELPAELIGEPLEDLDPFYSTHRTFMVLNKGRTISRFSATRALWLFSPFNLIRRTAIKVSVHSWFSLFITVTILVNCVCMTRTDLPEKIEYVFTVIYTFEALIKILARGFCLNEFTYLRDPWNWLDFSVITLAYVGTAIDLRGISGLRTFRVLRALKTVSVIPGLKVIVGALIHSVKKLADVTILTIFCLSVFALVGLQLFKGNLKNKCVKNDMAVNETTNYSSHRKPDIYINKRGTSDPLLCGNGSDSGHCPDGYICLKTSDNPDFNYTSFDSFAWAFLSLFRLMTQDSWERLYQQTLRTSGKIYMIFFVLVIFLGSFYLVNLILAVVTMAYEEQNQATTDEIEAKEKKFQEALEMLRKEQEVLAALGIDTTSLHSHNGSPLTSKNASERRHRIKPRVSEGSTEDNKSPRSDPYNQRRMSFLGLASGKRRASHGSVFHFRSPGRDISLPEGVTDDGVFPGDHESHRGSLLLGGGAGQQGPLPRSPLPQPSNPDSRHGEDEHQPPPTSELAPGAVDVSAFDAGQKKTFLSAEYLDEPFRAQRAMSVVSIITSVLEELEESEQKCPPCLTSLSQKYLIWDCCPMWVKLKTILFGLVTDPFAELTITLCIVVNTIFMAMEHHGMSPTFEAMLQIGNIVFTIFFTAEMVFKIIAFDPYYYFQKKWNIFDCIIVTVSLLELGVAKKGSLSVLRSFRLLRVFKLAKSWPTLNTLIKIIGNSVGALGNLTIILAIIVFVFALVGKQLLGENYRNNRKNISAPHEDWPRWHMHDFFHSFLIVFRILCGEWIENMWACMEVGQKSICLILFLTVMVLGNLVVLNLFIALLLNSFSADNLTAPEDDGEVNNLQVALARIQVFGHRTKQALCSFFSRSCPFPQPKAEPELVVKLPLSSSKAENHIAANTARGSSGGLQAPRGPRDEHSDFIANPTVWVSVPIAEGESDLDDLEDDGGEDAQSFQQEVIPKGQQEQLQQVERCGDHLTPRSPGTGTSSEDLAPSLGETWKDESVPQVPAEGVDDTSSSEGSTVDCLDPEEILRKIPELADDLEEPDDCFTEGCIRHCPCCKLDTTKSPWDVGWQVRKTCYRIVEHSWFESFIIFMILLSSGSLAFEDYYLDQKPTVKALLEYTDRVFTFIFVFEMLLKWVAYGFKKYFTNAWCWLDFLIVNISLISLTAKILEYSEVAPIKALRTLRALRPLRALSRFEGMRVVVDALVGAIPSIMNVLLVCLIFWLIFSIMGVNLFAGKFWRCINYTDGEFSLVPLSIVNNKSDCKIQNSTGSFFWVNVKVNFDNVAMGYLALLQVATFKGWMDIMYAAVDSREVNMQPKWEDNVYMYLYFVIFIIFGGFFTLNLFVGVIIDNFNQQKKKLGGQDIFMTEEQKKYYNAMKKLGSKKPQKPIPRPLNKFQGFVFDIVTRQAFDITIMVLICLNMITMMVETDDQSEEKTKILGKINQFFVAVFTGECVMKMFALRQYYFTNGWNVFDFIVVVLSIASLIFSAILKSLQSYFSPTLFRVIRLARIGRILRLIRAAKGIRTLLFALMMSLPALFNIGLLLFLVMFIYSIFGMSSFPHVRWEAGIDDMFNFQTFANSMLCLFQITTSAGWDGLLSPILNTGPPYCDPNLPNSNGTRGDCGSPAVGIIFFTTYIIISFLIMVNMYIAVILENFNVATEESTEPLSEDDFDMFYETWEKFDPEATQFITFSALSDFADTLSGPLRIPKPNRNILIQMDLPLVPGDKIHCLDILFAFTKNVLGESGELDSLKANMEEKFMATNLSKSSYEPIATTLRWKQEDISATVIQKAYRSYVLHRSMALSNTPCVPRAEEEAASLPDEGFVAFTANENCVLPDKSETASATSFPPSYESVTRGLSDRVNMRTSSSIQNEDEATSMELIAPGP

[2] = molecular target: T1, Sodium channel protein type 10 subunit alpha; experiment: Inhibition of Nav1.8 (unknown origin) at 10 uM by Ionflux high-throughput automated patch method
Target sequence in this assay (Q9Y5Y9 whole entry, looked up): as the sequence (Q9Y5Y9 whole entry) above

[3] = molecular target: T1, Sodium channel protein type 10 subunit alpha; experiment: Inhibition of human Nav1.8 with resting membrane potential at half inactivated state by PatchXpress high-throughput electrophysiology method
Target sequence in this assay (Q9Y5Y9 whole entry): as above

[4] = Kinetic solubility of the compound in pH 7.4 phosphate buffered saline measured after 2 hrs by LC/MS analysis; assay type: physicochemical; settings: read-out: Kinetic_solubility

IC50 [1] [nM] | inhibition [2] | IC50 [3] [nM] | solubility kinetic at 2 h [4] [µg/mL] | Compound
> 5000 | Active | – | – | CS(=O)(=O)c1cccc(NC(=O)c2cc(C(F)(F)F)cnc2Oc2cccnc2)c1
1300 | Active | – | – | CS(=O)(=O)c1cccc(NC(=O)c2cc(C(F)(F)F)cnc2Oc2cc(F)cc(F)c2)c1
1600 | Active | – | – | CS(=O)(=O)c1cccc(NC(=O)c2cc(C(F)(F)F)cnc2Oc2ccccc2)c1
– | inactive | > 10000 | – | COCCCNC(=O)c1cc(C(F)(F)F)cnc1Oc1ccc(F)cc1OC
92 | Active | 32 | – | COc1cc(F)ccc1Oc1cc(C(F)(F)F)ncc1C(=O)Nc1cccc(S(C)(=O)=O)c1
1100 | Active | – | 128 (≈ 302 µM) | COc1cc(F)ccc1Oc1ncc(C(F)(F)F)cc1C(=O)Nc1ccc[n+]([O-])c1
102 | Active | – | – | COc1cc(F)ccc1Oc1nc(C(F)(F)F)ccc1C(=O)Nc1cccc(S(C)(=O)=O)c1
– | inactive | > 10000 | – | COc1cc(F)ccc1Oc1ncc(C(F)(F)F)cc1C(=O)NCCN(C)C
> 5000 | Active | – | – | CS(=O)(=O)c1cccc(NC(=O)c2cc(C(F)(F)F)cnc2Oc2c(F)cccc2F)c1
560 | Active | – | 19 (≈ 46.6 µM) | COc1cc(F)ccc1Oc1ncc(C(F)(F)F)cc1C(=O)Nc1ccncc1
– | inactive | > 10000 | – | COc1cc(F)ccc1Oc1nccnc1C(=O)Nc1cccc(S(C)(=O)=O)c1
– | inactive | > 10000 | – | COc1cc(F)ccc1Oc1ncc(C(F)(F)F)cc1C(=O)NCc1cccnc1N1CCOCC1
– | inactive | > 10000 | – | CC(C)Oc1ncc(C(F)(F)F)cc1C(=O)Nc1cccc(S(C)(=O)=O)c1
– | Active | 35 | 1.4 (≈ 2.62 µM) | Cc1cc(OC(F)(F)F)ccc1Oc1ncc(C(F)(F)F)cc1C(=O)Nc1cccc(S(C)(=O)=O)c1
– | Active | 20 | 4 (≈ 7.69 µM) | CS(=O)(=O)c1cccc(NC(=O)c2cc(C(F)(F)F)cnc2Oc2ccc(OC(F)(F)F)cc2)c1
120 | Active | – | – | Cc1cc(F)ccc1Oc1ncc(C(F)(F)F)cc1C(=O)Nc1cccc(S(C)(=O)=O)c1
240 | Active | – | – | COc1cc(F)ccc1Oc1ncc(C(F)(F)F)cc1C(=O)Nc1ccncn1
3000 | Active | – | – | COc1cc(F)ccc1Oc1ncc(C(F)(F)F)cc1C(=O)Nc1cccc(P(C)(C)=O)c1
> 5000 | Active | – | – | COc1cc(F)ccc1Oc1ncc(C(F)(F)F)cc1C(=O)Nc1ccccn1
2900 | Active | – | – | CS(=O)(=O)c1cccc(NC(=O)c2cc(C(F)(F)F)cnc2Oc2ccc(F)cc2)c1
– | inactive | > 10000 | – | COc1cc(F)ccc1Oc1ccncc1C(=O)Nc1cccc(S(C)(=O)=O)c1
87 | Active | – | 0.3 (≈ 0.635 µM) | CS(=O)(=O)c1cccc(NC(=O)c2cc(C(F)(F)F)cnc2Oc2ccc(F)cc2F)c1
– | Active | 40 | – | COc1cc(F)ccc1Oc1ncc(C(F)(F)F)cc1C(=O)Nc1cccc([S+](C)[O-])c1 (stereo not drawn)
251 | Active | – | – | CS(=O)(=O)c1cccc(NC(=O)c2cc(C(F)(F)F)cnc2Oc2ccc(F)cc2Cl)c1
– | inactive | > 10000 | – | COc1cc(F)ccc1Oc1nc(C(F)(F)F)ncc1C(=O)Nc1cccc(S(C)(=O)=O)c1
33 | Active | 36 | – | COc1cc(F)ccc1Oc1nc2ccccc2nc1C(=O)Nc1cccc(S(C)(=O)=O)c1
– | inactive | > 10000 | – | COc1cc(F)ccc1Oc1ncccc1C(=O)Nc1cccc(S(C)(=O)=O)c1
2200 | Active | – | – | COc1cc(F)ccc1Oc1ncc(C(F)(F)F)cc1C(=O)Nc1cccnc1
